Usually MIC stands for the least concentration at which growth counts as inhibited. A lower MIC goes with greater potency.

For one assay, the system named is Alternaria tenuis. In words: MIC on agar, Alternaria tenuis. Type of assay: cell-based. As to conditions: Alternaria alternata, 336 h, beerwort/peptone agar, 28° C., 2 weeks. The protocol:
(§1) N-(Dichlorofluoromethylthio)-3,4-dimethylmaleimide is added in concentrations of 0.1 mg/l to 5,000 mg/l to an agar prepared from beerwort and peptone. After storage at 28° C. and 60 to 70% relative atmospheric humidity for 2 weeks, the MIC is determined. The MIC is the lowest concentration of active compound at which no growth at all of the species of microbe used takes place, and is given in the following table.

A further assay has as its system Aspergillus niger. In words: MIC on agar, Aspergillus niger. As to conditions: 336 h, beerwort/peptone agar, 28° C., 2 weeks. It is filed as cell-based. The procedure: as §1
In the next assay the test system is Aureobasidium pullulans. The assay is described as follows: MIC on agar, Aureobasidium pullulans. It is filed as cell-based. To be noted: 336 h, beerwort/peptone agar, 28° C., 2 weeks. The protocol: as §1
Another assay relates to Chaetomium globosum. The assay is described as follows: MIC on agar, Chaetomium globosum. To be noted: 336 h, beerwort/peptone agar, 28° C., 2 weeks. It is filed as cell-based. The procedure:
as §1

For a further assay, the system named is Coniophora puteana. In words: MIC on agar, Coniophora puteana. Type of assay: cell-based. To be noted: 336 h, beerwort/peptone agar, 28° C., 2 weeks. The protocol:
as §1

A further assay relates to Lentinus tigrinus. The assay is described as follows: MIC on agar, Lentinus tigrinus. It is filed as cell-based. As to conditions: 336 h, beerwort/peptone agar, 28° C., 2 weeks. The procedure: as §1
Another assay deals with Penicillium glaucum. In words: MIC on agar, Penicillium glaucum. Type of assay: cell-based. To be noted: 336 h, beerwort/peptone agar, 28° C., 2 weeks. The protocol:
as §1

The subject of the next assay is Polyporus versicolor. The assay is described as follows: MIC on agar, Polyporus versicolor. Type of assay: cell-based. To be noted: Trametes versicolor, 336 h, beerwort/peptone agar, 28° C., 2 weeks. The procedure:
as §1

A further assay deals with Sclerophoma pityophila. The assay is described as follows: MIC on agar, Sclerophoma pityophila. Type of assay: cell-based. To be noted: Sydowia polyspora, 336 h, beerwort/peptone agar, 28° C., 2 weeks. The procedure:
as §1

Another assay relates to Trichoderma viride. In words: MIC on agar, Trichoderma viride. Type of assay: cell-based. As to conditions: 336 h, beerwort/peptone agar, 28° C., 2 weeks. The procedure:
as §1

A further assay relates to slime organisms. In words: Action against slime organisms. Type of assay: cell-based. As to conditions: 504 h; slime organisms (about 10^6 germs/ml), Allens nutrient solution, room temperature, 3 weeks. The protocol: N-(Dichlorofluoromethylthio)-3,4-dimethylmaleimide (dissolved in a little acetone) is used in concentrations of in each case 0.1 to 100 mg/l in Allens nutrient solution (Arch. Mikrobiol. 17, 34 to 53 (1952)), which contains, in 4 l of sterile water, 0.2 g of ammonium chloride, 4.0 g of sodium nitrate, 1.0 g of dipotassium hydrogen phosphate, 0.2 g of calcium chloride, 2.05 g of magnesium sulphate, 0.02 g of iron chloride and 1% of caprolactam. Shortly beforehand, the nutrient solutions are infected with slime organisms (about 10^6 germs/ml) which have been isolated from spinning water circulations used in the production of polyamide. Nutrient solutions which contain the minimum inhibitory concentration (MIC) or higher concentrations of active compound are still completely clear after culture at room temperature for 3 weeks, that is to say the marked increase in microbes and slime formation noticeable after 3 to 4 days in nutrient solutions containing no active compound are absent.

For assay [1], the system named is Aspergillus niger, Aureobasidium pullulans, Alternaria tenuis, Penicillim citrinum, Stachybotrys atra, Paecilamyces varioti, Cladosporium herbarum, Aspergillus …. The assay is described as follows: Test as a paint fungicide (mould-resistance of paint films, Report 219 of the Defense Standards Laboratories). As to conditions: alkyd resin lacquer paint containing 0.8% of compound based on weight of film; also after ageing (running water 24° C. 24 h, fresh air 40° to 60° C. 8 days, dry Xenon test 110 h); evaluated after 3 weeks at 28° to 30° C. The protocol: The testing is carried out in accordance with the method in Report 219 of the Defense Standards Laboratories Maribyrnong/Australia, as follows: A smooth card is coated on both sides with the paint to be tested and dried at room temperature for 8 days. For ageing, part of the paint film is kept in running water of 24° C. for 24 hours, or aerated with fresh air of 40° to 60° C. for 8 days, or subjected to a dry Xenon test for 110 hours. 5×5 cm sections of the samples thus prepared are placed individually on a glucose nutrient medium in Petri dishes and contaminated with a spore suspension of the following fungi: Aspergillus niger, Aureobasidium pullulans, Alternaria tenuis, Penicillim citrinum, Stachybotrys atra, Paecilamyces varioti, Cladosporium herbarum, Aspergillus ustus and Aspergillus flavus.
The contaminated dishes are kept at 28° to 30° C. and 90 to 95% relative atmospheric humidity, and are evaluated after 3 weeks. Paint films are regarded as mould-resistant if the samples remain free from fungi after these tests.
A commercially available lacquer paint based on alkyd resin is tested for mould-resistance by the above-mentioned test method.

Values after ≈ are worked out from the molar mass of the structure shown.

On to `CC1=C(C)C(=O)N(SC(F)(Cl)Cl)C1=O` [N-(dichlorofluoromethylthio)-3,4-dimethylmaleimide], for which the MIC in the assay with Alternaria tenuis is 0.75 µg/mL (≈ 2.91 µM); in the assay on Aspergillus niger, 50 µg/mL (≈ 194 µM); in the assay with Aureobasidium pullulans it was 0.5 µg/mL (≈ 1.94 µM); in the assay with Chaetomium globosum, 50 µg/mL (≈ 194 µM); against Coniophora puteana, 0.75 µg/mL (≈ 2.91 µM); against Lentinus tigrinus, 1.5 µg/mL (≈ 5.81 µM). For the same compound, the MIC against Penicillium glaucum stood at 5 µg/mL (≈ 19.4 µM); with Polyporus versicolor, 7.5 µg/mL (≈ 29.1 µM); against Sclerophoma pityophila, 1 µg/mL (≈ 3.87 µM); in the assay with Trichoderma viride it was 100 µg/mL (≈ 387 µM); with slime organisms, 7.5 µg/mL (≈ 29.1 µM). In addition, in assay [1], the “mould-resistance of paint films” value is recorded as “mould-resistant”.
